The text below walks through data of US20030175979A1, “System and method for characterizing metabolites using hydrogen/deuterium exchange” (priority 2002, published 2003).

One data set has as its system dog liver hepatocytes. The data set can be described thus: Incubation of [14C]PD 0200126 with dog hepatocytes, radiochromatographic metabolite profile. Format: in vitro ADME. As to conditions: [14C]PD 0200126 incubated with dog hepatocytes for 180 minutes; flow-through radioactivity detector. As for the experimental part:
In Vitro Study. A proposed metabolite M2 (PD 0200126-glucuronide) was formed following incubation of [^14C]PD 0200126 with dog liver hepatocytes for 180 minutes.
Apparatus and Conditions. An Agilent 1100 HPLC system (Agilent Technologies, Wilmington, Del.), including pumps, autoinjector, and UV detector, was used to separate the metabolites. Separation of the metabolites was achieved using a Metasil AQ guard column (Metachem Technologies, Torrance, Calif.) and a 150 mm×4.6 mm MetaChem Polaris C-18 reversed-phase HPLC column (Metachem Technologies). […]
After passing through the UV detector (280 nm), the HPLC effluent was split so that 20%-30% of the flow was introduced into the mass spectrometer via an ESI source supplied with the mass spectrometer, while 70%-80% was diverted to the radioactivity detector (β-RAM, IN/US, Tampa, Fla.). The analog output from the UV detector, along with the MS signal, were recorded in real time by the data system provided with the mass spectrometer (Xcalibur V 1.2, ThermoFinnigan). […] The β-RAM data was integrated to obtain semi-quantitative information about the metabolites and the unchanged drug. The delay in response between the radioactivity detector and the MS was 0.2 min -0.4 min with the MS response being recorded first. […]

A short description of data set [1]: Metabolite profile in rabbit plasma after oral administration of PD 0200126 (LC-UV/MS). Particulars: 300 mg/kg oral PD 0200126, UV 280 nm and LC-MS. Format: in vivo. The protocol:
In Vivo Studies. To obtain plasma samples, blood from rabbits was collected at various time points following a 300 mg/kg oral administration of PD 0200126. Plasma was precipitated by addition of 3 volumes of acetonitrile to 1 volume of plasma and then centrifuged. The resulting supernatant was decanted off, dried, and subsequently reconstituted in the mobile phase solvent (described below) prior to injection in the HPLC. A 100-μL aliquot was injected for each experiment (run).
Apparatus and Conditions. An Agilent 1100 HPLC system (Agilent Technologies, Wilmington, Del.), including pumps, autoinjector, and UV detector, was used to separate the metabolites. Separation of the metabolites was achieved using a Metasil AQ guard column (Metachem Technologies, Torrance, Calif.) and a 150 mm×4.6 mm MetaChem Polaris C-18 reversed-phase HPLC column (Metachem Technologies). The mobile phase comprised 20-mM ammonium acetate in water adjusted to pH 4 with acetic acid (Solvent A) and acetonitrile (Solvent B), and was maintained at a constant flow rate (1 mL/min) throughout each run. Gradient elution of the metabolites was achieved using programmed stepwise changes of solvent A/B ratios of 95/5, 50/50, 25/75, 5/95, and 95/5 at 0, 40, 50, 60, and 75 min, respectively.
After passing through the UV detector (280 nm), the HPLC effluent was split so that 20%-30% of the flow was introduced into the mass spectrometer via an ESI source supplied with the mass spectrometer, while 70%-80% was diverted to the radioactivity detector (β-RAM, IN/US, Tampa, Fla.). The analog output from the UV detector, along with the MS signal, were recorded in real time by the data system provided with the mass spectrometer (Xcalibur V 1.2, ThermoFinnigan). A separate software program (Win-Flow V 1.5, IN/US, Tampa, Fla.) was used to control the β-RAM and to collect the analog output from the β-RAM. The β-RAM data was integrated to obtain semi-quantitative information about the metabolites and the unchanged drug. The delay in response between the radioactivity detector and the MS was 0.2 min -0.4 min with the MS response being recorded first.
Trace amounts of PD 0200126 and M10 were also observed at m/z 425 and 409, respectively. Metabolites M1-M6 were characterized in a separate study involving rat and mouse hepatocytes.

Entries after “also recorded” stand apart in the source; their conditions may differ.

As for `CC(C)[C@@H](NS(=O)(=O)c1ccc(-c2ccc(Br)cc2)cc1)C(=O)NOC1OC(C(=O)O)C(O)C(O)C1O` (stereo partly drawn) [Metabolite M2, PD 0200126-glucuronide], the “share of the total radioactivity associated with the component” value in the data set with dog liver hepatocytes is on record as “more than 90%”.

`NS(=O)(=O)c1ccc(-c2ccc(Br)cc2)cc1` [Metabolite M8, bromo-biphenylsulfonamide]: the “abundance of drug/metabolite in plasma (UV component / extracted ion chromatogram)” value in data set [1] is recorded as “prominent UV components”. As to `CC(C)[C@@H](NS(=O)(=O)c1ccc(-c2ccc(Br)cc2)cc1)C(=O)O` [Metabolite M9, PD 0200126-carboxylic acid], the “abundance of drug/metabolite in plasma (UV component / extracted ion chromatogram)” value in data set [1] was “prominent UV components”. Moreover, in the data set on dog liver hepatocytes, the “share of the total radioactivity associated with the component” value was “minor amounts”. For the compound `CC(C)[C@@H](NS(=O)(=O)c1ccc(-c2ccc(Br)cc2)cc1)C(N)=O` [Metabolite M10], the “abundance of drug/metabolite in plasma (UV component / extracted ion chromatogram)” value in data set [1] (300 mg/kg) is “Trace amounts; also recorded: minor UV component”. Consider `CC(C)[C@@H](NS(=O)(=O)c1ccc(-c2ccc(Br)cc2)cc1)C(=O)NO` [PD 0200126, 2-(4′-bromo-biphenyl-4-sulfonylamino)-N-hydroxy-3-methyl-butyramide], for which, in data set [1], the “abundance of drug/metabolite in plasma (UV component / extracted ion chromatogram)” value is given as “Trace amounts”.
